Assay results reported in patent publication US4108724A, “Method for preparing antibiotic P-2563 using Pseudomonas fluorescens” (Takeda Chemical Industries, Ltd., priority 1975, dated 1978).
Values after ≈ are worked out from the molar mass of the structure shown. “Also recorded” adds a separate entry of the source. Structures can show the parent of a compound that is named as a salt.

Key:
Stability against pH = assay type: physicochemical; conditions: outside the stable pH range
[1] = system: gram-positive and gram-negative bacteria; test: Antimicrobial spectrum (general statement); assay type: cell-based
Description: (§1) Procedure I : Cultivated on heart infusion agar medium (Difco) at 37° C for 24 hours.
(§2) Procedure II : Cultivated on heart infusion agar medium with 1 % added glycerin at 37° C for 48 hours.
(§3) Procedure III : Cultivated on glucose bouillon agar medium at 28° C for 96 hours.

Solubilities = assay type: physicochemical; conditions: for Solubilities: insoluble: insoluble solvents; for Solubilities: readily soluble: readily soluble solvents; for Solubilities: sparingly soluble: sparingly soluble solvents
[2] = Acute toxicity in mice (intravenous); assay type: in vivo; conditions: for LD50: mouse, in vivo
Candida albicans = test: Antimicrobial spectrum, minimal inhibitory concentration (Procedure III); assay type: cell-based; conditions: Procedure III: glucose bouillon agar, 28° C, 96 hours
Description: (§4) In the table, procedures I to III mean the following:
as §3

Cryptococcus neoformans = test: as above; assay type: cell-based; conditions: Procedure III: glucose bouillon agar, 28° C, 96 hours
Description: as §4, §3

[3] = system: Trichophyton mentagrophytes; test: as above; assay type: cell-based; conditions: Procedure III: glucose bouillon agar, 28° C, 96 hours
Description: as §4, §3

Microsporum gypseum = test: as above; assay type: cell-based; conditions: Nannizzia gypsea; Procedure III: glucose bouillon agar, 28° C, 96 hours
Description: as §4, §3

Asperigillus fumigatus = test: as above; assay type: cell-based; conditions: Procedure III: glucose bouillon agar, 28° C, 96 hours
Description: as §4, §3

Bacillus subtilis = test: Antimicrobial spectrum, minimal inhibitory concentration (Procedure I); assay type: cell-based; conditions: Procedure I: heart infusion agar, 37° C, 24 hours
Description: as §4, §1

Escherichia coli = test: as above; assay type: cell-based; conditions: Procedure I: heart infusion agar, 37° C, 24 hours
Description: as §4, §1

Pseudomonas aeruginosa = test: as above; assay type: cell-based; conditions: Procedure I: heart infusion agar, 37° C, 24 hours
Description: as §4, §1

Proteus mirabilis = test: as above; assay type: cell-based; conditions: Procedure I: heart infusion agar, 37° C, 24 hours
Description: as §4, §1

Staphylococcus aureus = test: as above; assay type: cell-based; conditions: Procedure I: heart infusion agar, 37° C, 24 hours
Description: as §4, §1

Klebsiella pneumoniae = test: as above; assay type: cell-based; conditions: Procedure I: heart infusion agar, 37° C, 24 hours
Description: as §4, §1

Proteus vulgaris = test: as above; assay type: cell-based; conditions: Procedure I: heart infusion agar, 37° C, 24 hours
Description: as §4, §1

Mycobacterium species = test: Antimicrobial spectrum, minimal inhibitory concentration (Procedure II); assay type: cell-based; conditions: Procedure II: heart infusion agar with 1 % added glycerin, 37° C, 48 hours
Description: as §4, §2

[4] = Toxicity (general statement)
[5] = system: bacteria of the genus Pseudomonas; test: Antimicrobial spectrum (general statement); assay type: cell-based
Description: as §1

| Structure (SMILES) | Stability: decomposition (Stability against pH) | antimicrobial spectrum [1] | Solubilities: insoluble (Solubilities) | Solubilities: readily soluble (Solubilities) | Solubilities: sparingly soluble (Solubilities) | solubility in water (general statement) (Solubilities) | toxicity [2] | LD50 [2] [mg/kg] | MIC (Candida albicans) [µg/mL] | MIC (Cryptococcus neoformans) [µg/mL] | MIC [3] [µg/mL] | MIC (Microsporum gypseum) [µg/mL] | MIC (Asperigillus fumigatus) [µg/mL] | MIC (Bacillus subtilis) [µg/mL] | MIC (Escherichia coli) [µg/mL] | MIC (Pseudomonas aeruginosa) [µg/mL] | MIC (Proteus mirabilis) [µg/mL] | MIC (Staphylococcus aureus) [µg/mL] | MIC (Klebsiella pneumoniae) [µg/mL] | toxicity [4] | other results |
| --- | --- | --- | --- | --- | --- | --- | --- | --- | --- | --- | --- | --- | --- | --- | --- | --- | --- | --- | --- | --- | --- |
| CC(=O)N[C@H]1[C@H](O)[C@@H](O)C(OC(C(O)CN)C(N)C(O)CO)O[C@@H]1CO (stereo partly drawn) [P-2563 (II)] | decmposes gradually with a loss of activity under strongly basic (above pH 8) and strongly acidic (below pH 3) conditions | broad antimicrobial spectrum, especially against gram-positive and gram-neg ative bacteria; also recorded: inhibitory to gram-positive and gram-negative bacteria | insoluble in chloroform, ethyl acetate, ether, n-hexane and petroleum ether | Readily soluble in water and methanol | sparingly soluble in ethanol, n-propanol, butanol and acetone | water-soluble | extremely low in toxicity | > 400 | > 500 | > 500 | > 500 | > 500 | > 500 | 70 (≈ 183 µM) | 50 (≈ 130 µM) | 300 (≈ 782 µM) | 200 (≈ 522 µM) | 200 (≈ 522 µM) | 50 (≈ 130 µM) | low toxicity | MIC (Proteus vulgaris): 100 µg/mL (≈ 261 µM); MIC (Mycobacterium species): 200 µg/mL (≈ 522 µM); inhibitory to bacteria of the genus Pseudomonas [5]: particularly to bacteria of the genus Pseudomonas |
| NCC(O)C(OC1O[C@H](CO)[C@@H](N)[C@H](O)[C@H]1O)C(N)C(O)CO (stereo partly drawn) [P-2563 (III)] | decomposes gradually under strongly acidic (below pH 3) and strongly basic (above pH 13) conditions | broad antimicrobial spectrum, especially against gram-positive and gram-neg ative bacteria | insoluble in chloroform, ethylacetate, ether, n-hexane and petroleum ether | Readily soluble in water and methanol | sparingly soluble in ethanol, n-propanol, butanol and acetone | water-soluble |  |  |  |  |  |  |  |  |  |  |  |  |  | low toxicity |  |
| CCC(=O)N[C@H]1[C@H](O)[C@@H](O)C(OC(C(O)CN)C(N)C(O)CO)O[C@@H]1CO (stereo partly drawn) [P-2563 (I) monohydrochloric acid salt] | decomposes gradually with a loss of activity under strongly basic (above pH 8) and strongly acidic (below pH 3) conditions |  | insoluble in chloroform, ethyl acetate, ether, n-hexane and petroleum ether | Readily soluble in water and methanol | sparingly soluble in ethanol, n-propanol, butanol and acetone |  |  |  |  |  |  |  |  |  |  |  |  |  |  |  |  |
| CCC(=O)N[C@H]1[C@H](O)[C@@H](O)C(OC(C(O)CN)C(N)C(O)CO)O[C@@H]1CO (stereo partly drawn) [P-2563 (I)] | decomposes gradually with a loss of activity under strongly basic (above pH 8) and strongly acidic (below pH 3) conditions | broad antimicrobial spectrum, especially against gram-positive and gram-neg ative bacteria; also recorded: inhibitory to gram-positive and gram-negative bacteria | insoluble in chloroform, ethyl acetate, ether, n-hexane and petroleum ether | Readily soluble in water, methanol and ethanol | sparingly soluble in n-propanol, butanol and acetone | water-soluble | extremely low in toxicity | > 400 | > 500 | > 500 | > 500 | > 500 | > 500 | 30 (≈ 75.5 µM) | 30 (≈ 75.5 µM) | 50 (≈ 126 µM) | 200 (≈ 503 µM) | 50 (≈ 126 µM) | 12.5 (≈ 31.5 µM) | low toxicity | MIC (Proteus vulgaris): 30 µg/mL (≈ 75.5 µM); MIC (Mycobacterium species): 200 µg/mL (≈ 503 µM); inhibitory to bacteria of the genus Pseudomonas [5]: particularly to bacteria of the genus Pseudomonas |
